Reference: ChEMBL document CHEMBL3301361, “Experimental in vitro DMPK and physicochemical data on a set of publicly disclosed compounds”
In brackets after ≈: the same amount, converted by molar mass.

Tests used:
physchem [1] = conditions: octan-1-ol/water
physchem [2] = conditions: pH 7.4 buffer

Compound	logD (physchem [1]; pH 7.4, LogD7.4)	solubility thermodynamic (physchem [2])	logD (physchem [1]; pH 7.4)
O=c1cc(N2CCOCC2)nc2c3ccccc3ccn12	2.78	44.7 µM (≈ 12.6 µg/mL)	–
CC1CCc2cc(F)cc3c(=O)c(C(=O)O)cn1c23 (configuration not stated) [FLUMEQUINE]	–	776 µM (≈ 203 µg/mL)	0.74
O=C1CN(C(=O)c2ccco2)c2ccccc2N1	1.21	269 µM (≈ 65.2 µg/mL)	–
Cc1cc2c(C)cc(=O)oc2c2c1NCCC2	2.9	30.9 µM (≈ 7.08 µg/mL)	–
COCCOc1cc(Nc2nccc(N(C)c3cc(CO)ccc3C)n2)cc(N2CCOCC2)c1	3.3	126 µM (≈ 60.4 µg/mL)	–
CN1CC(n2nccc2-c2cc(Cl)ccc2Oc2cc(F)c(S(=O)(=O)Nc3ncns3)cc2F)C1	1	47.9 µM (≈ 25.8 µg/mL)	–
COc1cc(C(=O)NS(=O)(=O)c2ccccc2C)ccc1Cc1cn(C)c2ccc(C(=O)NCCc3ccccc3)cc12	2.51	144 µM (≈ 86.1 µg/mL)	–
C[C@@H]1CN(C(=O)OC(C)(C)C)CCN1c1ncc(OCc2ccc(C#N)cc2)cn1	2.89	3.4 µM (≈ 1.39 µg/mL)	–
COc1cc(N2CCN(C(C)=O)CC2)ccc1Nc1ncc(C#N)c(-c2cnc3ccccn23)n1	2.8	0.9 µM (≈ 0.422 µg/mL)	–
Cc1ccc(Oc2ccc(Nc3ncnc4[nH]nc(OCCN5CCC(O)CC5)c34)cc2Cl)cn1	3.4	28.2 µM (≈ 14 µg/mL)	–
CS(=O)(=O)c1cccc(Nc2nccc(Nc3c(Cl)ccc4ccoc34)n2)c1	3.7	11.5 µM (≈ 4.77 µg/mL)	–
O=C(Nc1ccc(N2CCOCC2)nc1)c1nnc(Nc2cccc(OCc3ccccn3)c2)o1	3.1	6.3 µM (≈ 2.98 µg/mL)	–
Cc1nc(CS(=O)(=O)c2ccc(Cl)cc2)cc(N2CCOCC2)n1	1.8	224 µM (≈ 82.4 µg/mL)	–
O=C(NCc1ccncc1)c1ccc(Oc2ccc(C#C[C@]3(O)CN4CCC3CC4)cc2)cc1	–	302 µM (≈ 137 µg/mL)	2.42
CC(C)Oc1cc(Oc2ccc(S(C)(=O)=O)cc2)cc(C(=O)Nc2nccs2)c1	3.61	5.2 µM (≈ 2.25 µg/mL)	–
O=C(CO)N1CCC[C@@H]1COc1cccc2ncnc(Nc3ccc(OCc4ccccn4)c(Cl)c3)c12	3.71	2.2 µM (≈ 1.14 µg/mL)	–
COc1cc(OC2CCNCC2)ccc1Nc1ncc(Cl)c(-c2cnc3ccccn23)n1	1.8	30.9 µM (≈ 13.9 µg/mL)	–
O=C1CN2Cc3c(ccc(Cl)c3Cl)N=C2N1 [ANAGRELIDE]	1.86	5.4 µM (≈ 1.38 µg/mL)	–
Cc1cccc(NS(=O)(=O)c2ccc(-c3ccc(C#N)cc3)cc2)n1	2.42	17.4 µM (≈ 6.08 µg/mL)	–
O=C(/C=C/Sc1nc[nH]n1)c1ccc(Cl)cc1	3.1	35.5 µM (≈ 9.43 µg/mL)	–
COc1cc(-c2cccc3c(=O)cc(N4CCOCC4)oc23)ccc1NC(=O)CN1CCOCC1	2.3	13.2 µM (≈ 6.33 µg/mL)	–
O=C(Nc1ccc(N2CCOCC2)cc1)c1nnc(NC(=O)C2(c3ccc(Cl)cc3)CCCC2)o1	3.72	8.7 µM (≈ 4.31 µg/mL)	–

Compound	logD (physchem [1]; pH 7.4, LogD7.4)	solubility thermodynamic (physchem [2])	logD (physchem [1]; pH 7.4)
Oc1cc(-c2ccccc2)nc2ccnn12	–	813 µM (≈ 172 µg/mL)	1.3
COc1cc(Nc2cc(Oc3cccnc3)ccn2)cc(OC)c1OC	2.66	93.3 µM (≈ 33 µg/mL)	–
O=C(c1ccc(F)cc1)C(O)c1ccc(F)cc1 (configuration not stated)	2.49	933 µM (≈ 232 µg/mL)	–
Nc1nc(-c2ccc(Cl)cc2)cs1	3.31	83.2 µM (≈ 17.5 µg/mL)	–
COc1ccc(C(=O)N2CCC(C(=O)c3ccc(F)cc3)CC2)cc1	2.92	21.4 µM (≈ 7.31 µg/mL)	–
COc1ccnc(N(C)c2ccnc(Nc3cc(N4CCOCC4)cc(N4CCOCC4)c3)n2)c1	2.23	51.3 µM (≈ 24.5 µg/mL)	–
CCn1c2ccccc2c2cc(NC(=O)CN(C)C)ccc21	3.2	219 µM (≈ 64.6 µg/mL)	–
CCn1cc(NC(=O)Cc2ccc(Oc3ccnc4cc(F)ccc34)cc2OC)cn1	3.93	2 µM (≈ 0.841 µg/mL)	–
Cc1ncc(-c2ccnc(Nc3ccccc3)n2)n1C(C)C	3.58	35.5 µM (≈ 10.4 µg/mL)	–
O=CN(O)C1(CS(=O)(=O)N2CCN(c3ccc(F)cc3)CC2)CCOCC1	0.85	1380 µM (≈ 554 µg/mL)	–
Cc1cnc(NC(=O)Cc2ccccc2)s1	2.9	17 µM (≈ 3.95 µg/mL)	–
CN(C)CC(O)COc1ccc(Nc2nccc(Nc3cccc(Cl)c3)n2)cc1 (configuration not stated)	2.5	120 µM (≈ 49.8 µg/mL)	–
C[C@@H](Oc1cccc2ncnc(Nc3ccc(OCc4ccccn4)c(Cl)c3)c12)C(=O)N(C)C	3.67	6.2 µM (≈ 2.96 µg/mL)	–
Cc1ccc(S(=O)(=O)Nc2c(C(=O)NC3CCCCC3)cnn2-c2ccccc2)cc1	0.8	490 µM (≈ 215 µg/mL)	–
NC(=O)c1sc(-c2ccccc2)cc1N	2.33	38.9 µM (≈ 8.49 µg/mL)	–
COc1cccc(Nc2nnc(C(=O)Nc3ccc(N4CCOCC4)nc3)o2)c1	2.8	4.6 µM (≈ 1.82 µg/mL)	–
CNC(=O)Nc1cc(-c2ccccc2)sc1C(N)=O	2.71	1.1 µM (≈ 0.303 µg/mL)	–
COc1ccccc1Nc1cc(Oc2cc(C)c(C)nc2-c2ccccn2)ccn1	3.37	22.9 µM (≈ 9.12 µg/mL)	–
OCCNCc1cc(Br)ccc1OCc1ccc(Cl)cc1	2.98	229 µM (≈ 84.9 µg/mL)	–
Cc1oc(-c2ccccc2)nc1CCOc1ccc(C[C@H](Nc2ccccc2C(=O)c2ccccc2)C(=O)O)cc1 [FARGLITAZAR]	3.5	35.5 µM (≈ 19.4 µg/mL)	–
NC(=O)Nc1sc(-c2ccc(CNC3CCCC3)cc2)cc1C(N)=O	1.22	479 µM (≈ 172 µg/mL)	–
O=S(=O)(c1ccc(F)cc1)N1CCCN(c2nccc(C(F)(F)F)n2)CC1	–	0.9 µM (≈ 0.364 µg/mL)	–
